# Several values for one entry are separate records, joined by “and”; a condition that tells them apart may be missing. Identical values can stand only once. Inconclusive results and toxic doses are left out.
# Tested on: P388 leukemia ip, CD2F1 mice, survival T/C
# Assay: NCI In Vivo Anticancer Drug Screen. Data for tumor model P388 Leukemia (intraperitoneal) in CD2F1 (CDF1) mice
# Details: endpoint: median survival time, higher = longer survival
# Outline: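 Mice carrying the transplanted tumor received test compound or vehicle. Survival was recorded in each group, and the value is the treated-group measurement divided by that of the vehicle-treated control group.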
# [1] = dose: 25.0 mg/kg/injection, schedule: Q01DX009 (ip), vehicle: Klucel (hydroxypropylcellulose) (HPC)
# [2] = dose: 50.0 mg/kg/injection, schedule: Q01DX009 (ip), vehicle: Klucel (hydroxypropylcellulose) (HPC)
# [3] = dose: 100.0 mg/kg/injection, schedule: Q01DX009 (ip), vehicle: Klucel (hydroxypropylcellulose) (HPC)
# [4] = dose: 200.0 mg/kg/injection, schedule: Q01DX009 (ip), vehicle: Klucel (hydroxypropylcellulose) (HPC)
# [5] = dose: 400.0 mg/kg/injection, schedule: Q01DX009 (ip), vehicle: Klucel (hydroxypropylcellulose) (HPC)
# [6] = dose: 25.0 mg/kg/injection, schedule: Q01DX005 (ip), vehicle: Klucel (hydroxypropylcellulose) (HPC)
# [7] = dose: 50.0 mg/kg/injection, schedule: Q01DX005 (ip), vehicle: Klucel (hydroxypropylcellulose) (HPC)
# [8] = dose: 200.0 mg/kg/injection, schedule: Q01DX005 (ip), vehicle: Klucel (hydroxypropylcellulose) (HPC)
# [9] = dose: 12.5 mg/kg/injection, schedule: Q01DX005 (ip), vehicle: Klucel (hydroxypropylcellulose) (HPC)
# [10] = dose: 100.0 mg/kg/injection, schedule: Q01DX005 (ip), vehicle: Klucel (hydroxypropylcellulose) (HPC)
# [11] = dose: 60.0 mg/kg/injection, schedule: Q01DX005 (ip), vehicle: saline with Tween-80
# [12] = dose: 50.0 mg/kg/injection, schedule: Q01DX005 (ip), vehicle: saline
# [13] = dose: 100.0 mg/kg/injection, schedule: Q01DX005 (ip), vehicle: saline
# [14] = dose: 200.0 mg/kg/injection, schedule: Q01DX005 (ip), vehicle: saline
structure (smiles),measurement,setting,value
c1ccc(-c2nnc(-c3ccccn3)nn2)nc1,T/C,[1],100 % of control
same,T/C,[2],99 % of control
same,T/C,[3],100 % of control
same,T/C,[4],108 % of control
same,T/C,[5],96 % of control
COc1cc2c(cc1O)c(O)cc1c3cc(OC)c(OC)cc3c[n+](C)c21,T/C,[6],152 % of control
same,T/C,[7],153 % of control and 160 % of control
same,T/C,[8],156 % of control and 159 % of control
O=C(CBr)c1ccc(C(F)(F)F)cc1,T/C,"dose: 6.25 mg/kg/injection, schedule: Q01DX009 (ip), vehicle: DMSO",99 % of control
same,T/C,"dose: 12.5 mg/kg/injection, schedule: Q01DX009 (ip), vehicle: DMSO",88 % of control
CC(C)NC(=O)OCc1c(COC(=O)NC(C)C)c(-c2ccc(Cl)c(Cl)c2)n2c1CS(=O)C2 (configuration not stated),T/C,"dose: 12.5 mg/kg/injection, schedule: Q01DX005 (ip), vehicle: Klucel + Tween-80",99 % of control
same,T/C,"dose: 25.0 mg/kg/injection, schedule: Q01DX005 (ip), vehicle: Klucel + Tween-80",97 % of control
same,T/C,"dose: 50.0 mg/kg/injection, schedule: Q01DX005 (ip), vehicle: Klucel + Tween-80",92 % of control
same,T/C,"dose: 100.0 mg/kg/injection, schedule: Q01DX005 (ip), vehicle: Klucel + Tween-80",89 % of control
same,T/C,"dose: 200.0 mg/kg/injection, schedule: Q01DX005 (ip), vehicle: Klucel + Tween-80",104 % of control and 89 % of control
CCN(CC)CCN(C(=O)C1c2ccccc2Oc2ccccc21)c1ccccc1,T/C,[9],106 % of control
same,T/C,[6],100 % of control
same,T/C,[7],100 % of control and 94 % of control
CN(C)P1(=O)OCC(C)(C)CN1c1ccccc1 (configuration not stated),T/C,"dose: 100.0 mg/kg/injection, schedule: Q04DX002 (ip), vehicle: saline",96 % of control
same,T/C,"dose: 200.0 mg/kg/injection, schedule: Q04DX002 (ip), vehicle: saline",95 % of control
same,T/C,"dose: 400.0 mg/kg/injection, schedule: Q04DX002 (ip), vehicle: saline",100 % of control
CCOC(=O)c1cnc(SC)n(-c2ccc(OC)cc2)c1=O,T/C,[7],107 % of control
same,T/C,[10],92 % of control
same,T/C,[8],101 % of control
O=C(O)CNC(=O)/C=C/c1ccc(O)c(O)c1,T/C,[7],114 % of control
same,T/C,[10],100 % of control
same,T/C,[8],100 % of control
CC1(C)N=C(N)N=C(N)N1c1ccc(OCC(=O)Nc2ccc(S(=O)(=O)F)cc2)c(Cl)c1,T/C,"dose: 50.0 mg/kg/injection, schedule: Q04DX003 (ip), vehicle: saline",159 % of control
same,T/C,"dose: 100.0 mg/kg/injection, schedule: Q04DX003 (ip), vehicle: saline",163 % of control and 175 % of control
same,T/C,"dose: 200.0 mg/kg/injection, schedule: Q04DX003 (ip), vehicle: saline",177 % of control and 190 % of control
same,T/C,"dose: 400.0 mg/kg/injection, schedule: Q04DX003 (ip), vehicle: saline",115 % of control
CN1CCc2cc3c(c4c2C1C(O)c1ccccc1-4)OCO3 (configuration not stated),T/C,"dose: 0.12 mg/kg/injection, schedule: Q01DX009 (ip), vehicle: acid diluted with saline",109 % of control
same,T/C,"dose: 0.25 mg/kg/injection, schedule: Q01DX009 (ip), vehicle: acid diluted with saline",97 % of control
same,T/C,"dose: 2.0 mg/kg/injection, schedule: Q01DX009 (ip), vehicle: acid diluted with saline",92 % of control
same,T/C,"dose: 4.0 mg/kg/injection, schedule: Q01DX009 (ip), vehicle: acid diluted with saline",108 % of control
OC1(Cc2ccc(F)cc2)CCCCCC1,T/C,[7],102 % of control
same,T/C,[10],105 % of control
same,T/C,[8],103 % of control
CCCC(=O)N[C@H]1CCc2cc(OC)c(OC)c(OC)c2-c2ccc(SC)c(=O)cc21,T/C,"dose: 0.38 mg/kg/injection, schedule: Q01DX009 (ip), vehicle: distilled water + Tween-80",156 % of control
same,T/C,"dose: 0.75 mg/kg/injection, schedule: Q01DX009 (ip), vehicle: distilled water + Tween-80",160 % of control
same,T/C,"dose: 0.75 mg/kg/injection, schedule: Q01DX009 (ip), vehicle: water",182 % of control
same,T/C,"dose: 1.5 mg/kg/injection, schedule: Q01DX009 (ip), vehicle: water",231 % of control
CC(=O)O[C@H]1[C@@H](OC(C)=O)[C@]2(C)[C@H](CC[C@@]3(C)[C@H](c4ccoc4)C[C@H]4O[C@@]423)[C@@]2(C)C=CC(=O)OC(C)(C)[C@H]12,T/C,"dose: 1.25 mg/kg/injection, schedule: Q04DX003 (ip), vehicle: Klucel (hydroxypropylcellulose) (HPC)",94 % of control
same,T/C,"dose: 2.5 mg/kg/injection, schedule: Q04DX003 (ip), vehicle: Klucel (hydroxypropylcellulose) (HPC)",88 % of control
same,T/C,"dose: 5.0 mg/kg/injection, schedule: Q04DX003 (ip), vehicle: Klucel (hydroxypropylcellulose) (HPC)",93 % of control
same,T/C,"dose: 10.0 mg/kg/injection, schedule: Q04DX003 (ip), vehicle: Klucel (hydroxypropylcellulose) (HPC)",88 % of control
COc1cc(/C=C/c2ccc(O)c(OC)c2)cc(OC)c1,T/C,"dose: 6.25 mg/kg/injection, schedule: Q01DX005 (ip), vehicle: Klucel (hydroxypropylcellulose) (HPC)",104 % of control
same,T/C,[9],107 % of control
same,T/C,[6],100 % of control
same,T/C,[7],104 % of control and 108 % of control
same,T/C,[10],95 % of control
same,T/C,[8],88 % of control
CC(=O)/C(=C\c1ccc(Cl)c(Cl)c1)C(=O)C(C)CN(C)C (configuration not stated),T/C,"dose: 12.5 mg/kg/injection, schedule: Q01DX005 (ip), vehicle: saline with Tween-80",119 % of control and 120 % of control
same,T/C,"dose: 25.0 mg/kg/injection, schedule: Q01DX005 (ip), vehicle: saline with Tween-80",118 % of control
same,T/C,"dose: 50.0 mg/kg/injection, schedule: Q01DX005 (ip), vehicle: saline with Tween-80",115 % of control and 116 % of control and 121 % of control
O=[N+]([O-])c1ccc(Cl)nc1Sc1ncccn1,T/C,"dose: 6.25 mg/kg/injection, schedule: Q01DX009 (ip), vehicle: Klucel (hydroxypropylcellulose) (HPC)",96 % of control
same,T/C,"dose: 12.5 mg/kg/injection, schedule: Q01DX009 (ip), vehicle: Klucel (hydroxypropylcellulose) (HPC)",91 % of control
same,T/C,[1],104 % of control
same,T/C,[3],95 % of control
Cc1cccc(C)c1NC(=O)CCC(=O)CC(=O)c1ccncc1,T/C,[11],103 % of control
same,T/C,"dose: 120.0 mg/kg/injection, schedule: Q01DX005 (ip), vehicle: saline with Tween-80",105 % of control
same,T/C,"dose: 240.0 mg/kg/injection, schedule: Q01DX005 (ip), vehicle: saline with Tween-80",101 % of control
S=c1[nH]c2ccc(Cl)cc2s1,T/C,[2],98 % of control
same,T/C,[3],101 % of control
same,T/C,[4],90 % of control
same,T/C,[5],95 % of control
COC(=O)c1cc2cc3ccccc3cc2cc1C(=O)OC,T/C,"dose: 15.0 mg/kg/injection, schedule: Q01DX005 (ip), vehicle: saline with Tween-80",100 % of control
same,T/C,"dose: 30.0 mg/kg/injection, schedule: Q01DX005 (ip), vehicle: saline with Tween-80",101 % of control
same,T/C,[11],102 % of control
C[n+]1ccccc1-c1ccc[n+](CCCCC[n+]2cccc(-c3cccc[n+]3C)c2)c1,T/C,[12],100 % of control and 104 % of control
same,T/C,[13],99 % of control and 104 % of control
same,T/C,[14],107 % of control
Nc1nc(N)c2nc(CNc3ccc(C(=O)NC(CCC(=O)O)C(=O)O)cc3F)cnc2n1 (configuration not stated),T/C,"dose: 1.87 mg/kg/injection, schedule: Q01DX005 (ip), vehicle: saline with Tween-80",163 % of control
same,T/C,"dose: 7.5 mg/kg/injection, schedule: Q01DX005 (ip), vehicle: saline with Tween-80",183 % of control
CC1Nc2nc(N)[nH]c(=O)c2NC1C (configuration not stated),T/C,"dose: 25.0 mg/kg/injection, schedule: Q01DX005 (ip), vehicle: saline",97 % of control
same,T/C,[12],100 % of control and 97 % of control
same,T/C,[13],101 % of control and 97 % of control
same,T/C,[14],101 % of control and 95 % of control
CC(C)Nc1ncnc2[nH]ncc12,T/C,"dose: 16.0 mg/kg/injection, schedule: Q01DX009 (ip), vehicle: Klucel (hydroxypropylcellulose) (HPC)",101 % of control
same,T/C,"dose: 32.0 mg/kg/injection, schedule: Q01DX009 (ip), vehicle: Klucel (hydroxypropylcellulose) (HPC)",97 % of control
same,T/C,"dose: 64.0 mg/kg/injection, schedule: Q01DX009 (ip), vehicle: Klucel (hydroxypropylcellulose) (HPC)",87 % of control
Brc1ccc(C2=CSC3=NCCN23)cc1,T/C,"dose: 1.56 mg/kg/injection, schedule: Q01DX009 (ip), vehicle: saline with Tween-80",97 % of control
same,T/C,"dose: 3.12 mg/kg/injection, schedule: Q01DX009 (ip), vehicle: saline with Tween-80",94 % of control
same,T/C,"dose: 6.25 mg/kg/injection, schedule: Q01DX009 (ip), vehicle: saline with Tween-80",106 % of control and 114 % of control and 93 % of control
same,T/C,"dose: 12.5 mg/kg/injection, schedule: Q01DX009 (ip), vehicle: saline with Tween-80",100 % of control and 103 % of control and 122 % of control
same,T/C,"dose: 18.75 mg/kg/injection, schedule: Q01DX009 (ip), vehicle: saline with Tween-80",93 % of control
same,T/C,"dose: 25.0 mg/kg/injection, schedule: Q01DX009 (ip), vehicle: saline with Tween-80",108 % of control and 113 % of control
